The numbers were not newly measured in patent US20250049842A1, “THERAPEUTIC BLOOD-ACID-SHIFTING COMPOSITIONS AND METHODS” (priority 2023, published 2025), which cites them from elsewhere.

For this data set the following is noted: for pKa (pKa1, first or only dissociation): step (1) HA/A−; for pKa2 (second dissociation): step (2).

Where only a bound is given, the exact number is not on record here.

As for `[O-][Cl+2]([O-])O` [Chloric Acid], the “pKa (pKa1, first or only dissociation)” value was less than 1.

Regarding `Nc1nc2ncc(CNc3ccc(C(=O)N[C@@H](CCC(=O)O)C(=O)O)cc3)nc2c(=O)[nH]1` [Folic Acid, reference compound], the “pKa (pKa1, first or only dissociation)” value is 1.63 and the “pKa2 (second dissociation)” value was 2.71. For the same compound, for the setting “step (3)”, the “pKa (third dissociation)” value was 4.68. Under “step (4)”, the “pKa (fourth dissociation)” value was 7.53. For the compound `O=[N+]([O-])O` [Nitric Acid], the “pKa (pKa1, first or only dissociation)” value is given as less than 1. For the compound `O=NO` [Nitrous], the “pKa (pKa1, first or only dissociation)” value is reported as 3.39. For the compound `[O-][Cl+3]([O-])([O-])O` [Perchloric Acid], the “pKa (pKa1, first or only dissociation)” value is less than 1.

In the case of `CC(=O)C(=O)O` [Pyruvic Acid], the “pKa (pKa1, first or only dissociation)” value is listed as 2.49. Consider `O=S(O)O` [Sulfurous Acid], for which the “pKa (pKa1, first or only dissociation)” value was 1.18 and the “pKa2 (second dissociation)” value is 6.91.
